# Experimental data taken from ChEMBL document CHEMBL1126435, “DuP 747: a new, potent, kappa opioid analgesic. Synthesis and pharmacology1” (Bioorg Med Chem Lett, 1992).
# Columns and labels:
# [1] = target: Sigma non-opioid intracellular receptor 1 (Homo sapiens, UniProt Q99720)
# Description: Compound was evaluated for the binding affinity to sigma opioid receptor
# Rattus norvegicus [2] = assay: Compound was evaluated for analgesic activity by rat tail-flick assay following subcutaneous administration; details: sc
# Rattus norvegicus [3] = assay: Compound was evaluated for analgesic activity by rat tail-flick assay following peroral administration; details: po
# Sequence of Sigma non-opioid intracellular receptor 1 (Q99720 whole entry): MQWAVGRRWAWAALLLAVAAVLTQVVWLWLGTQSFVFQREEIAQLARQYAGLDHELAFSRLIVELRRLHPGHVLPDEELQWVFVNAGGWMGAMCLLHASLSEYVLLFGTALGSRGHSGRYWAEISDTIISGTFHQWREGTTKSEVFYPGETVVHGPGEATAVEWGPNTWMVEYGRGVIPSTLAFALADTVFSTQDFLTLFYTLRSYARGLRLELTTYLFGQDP
SMILES,Ki [1],ED50 (Rattus norvegicus [2]),ED50 (Rattus norvegicus [3])
COc1cccc2c1CC[C@H](N1CCCC1)[C@H]2N(C)C(=O)Cc1ccc(Cl)c(Cl)c1,5.16 µM,,
CN1CC[C@]23c4c5ccc(O)c4O[C@H]2[C@@H](O)C=C[C@H]3[C@H]1C5 [MORPHINE],,4.9 mg/kg,54 mg/kg
